Measurements as given in ChEMBL document CHEMBL5728435, “Alpha-D-galactoside inhibitors of galectins” (2021).

How the values were obtained:
Galectin-1 = Galectin-1 (Homo sapiens, UniProt P09382); test: (§1) Fluorescence Anisotropy Assay: Compounds for galectins were determined by a fluorescence anisotropy assay where the compound was used as an inhibitor of the interaction between galectin and a fluorescein tagged saccharide probe.
Galectin-3 = Galectin-3 (Homo sapiens, UniProt P17931); test: as §1
Galectin-3, sequence (P17931 whole entry): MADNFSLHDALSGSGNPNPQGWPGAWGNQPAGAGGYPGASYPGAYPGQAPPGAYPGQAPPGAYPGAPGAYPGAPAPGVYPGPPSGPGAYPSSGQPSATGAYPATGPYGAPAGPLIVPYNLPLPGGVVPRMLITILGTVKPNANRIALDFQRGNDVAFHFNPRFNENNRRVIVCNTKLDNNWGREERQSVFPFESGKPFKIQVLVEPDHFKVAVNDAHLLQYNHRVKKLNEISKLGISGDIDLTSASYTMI

Galectin-1, sequence (P09382 whole entry): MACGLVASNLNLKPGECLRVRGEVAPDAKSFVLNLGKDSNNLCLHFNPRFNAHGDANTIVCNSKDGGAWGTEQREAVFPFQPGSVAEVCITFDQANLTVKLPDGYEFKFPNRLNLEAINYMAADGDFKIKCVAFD

OCC1O[C@H](Sc2cc(Cl)c(F)c(Cl)c2)C(O)[C@@H](n2cc(-c3nccs3)nn2)[C@H]1O (some centres not stated)
Kd (Galectin-1): 0.28 µM | Kd (Galectin-3): 10 µM
